One may read the AC50 as the concentration at which the activity in the assay is half-maximal. As usually defined, the IC50 is the concentration that inhibits the measured activity by half. Broadly, the EC50 is the concentration needed to bring the measured effect to its halfway point.

Activity calls are given as the source filed them. Some results are limits rather than exact numbers.

A short description of experiment [1]: viability loss in HepG2 liver cells – cell-based, ATP luminescence, cherry-pick, set 6, cytotoxicity control, dose response (AID 1053125). The experiment is classed as functional.
Experiment [2] concerns the target T1, Neuropeptide Y receptor type 2 (Homo sapiens, UniProt P49146).
T1 sequence (P49146 whole entry): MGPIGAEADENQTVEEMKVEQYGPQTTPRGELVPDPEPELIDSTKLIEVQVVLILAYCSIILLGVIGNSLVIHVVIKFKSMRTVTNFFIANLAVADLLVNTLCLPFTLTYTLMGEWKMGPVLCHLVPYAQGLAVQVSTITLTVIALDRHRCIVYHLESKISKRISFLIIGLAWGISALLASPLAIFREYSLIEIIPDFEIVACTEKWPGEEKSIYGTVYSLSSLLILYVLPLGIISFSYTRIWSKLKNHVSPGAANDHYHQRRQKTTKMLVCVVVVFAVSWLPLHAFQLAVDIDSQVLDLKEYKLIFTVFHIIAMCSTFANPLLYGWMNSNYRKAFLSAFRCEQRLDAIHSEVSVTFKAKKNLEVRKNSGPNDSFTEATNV
In words: IC50 for human NPY-Y2 blockade – cell-based, counter-screen for NPY-Y1 antagonist project, dose response (AID 1278). The experiment is classed as functional. (In general: A counterscreen serves to expose hits that act by an unwanted route or on another target.)

Experiment [3] can be described thus: cells.
Experiment [4] has as its target T2, Neuropeptide Y receptor type 1 (Homo sapiens, UniProt P25929).
T2 sequence (P25929 whole entry): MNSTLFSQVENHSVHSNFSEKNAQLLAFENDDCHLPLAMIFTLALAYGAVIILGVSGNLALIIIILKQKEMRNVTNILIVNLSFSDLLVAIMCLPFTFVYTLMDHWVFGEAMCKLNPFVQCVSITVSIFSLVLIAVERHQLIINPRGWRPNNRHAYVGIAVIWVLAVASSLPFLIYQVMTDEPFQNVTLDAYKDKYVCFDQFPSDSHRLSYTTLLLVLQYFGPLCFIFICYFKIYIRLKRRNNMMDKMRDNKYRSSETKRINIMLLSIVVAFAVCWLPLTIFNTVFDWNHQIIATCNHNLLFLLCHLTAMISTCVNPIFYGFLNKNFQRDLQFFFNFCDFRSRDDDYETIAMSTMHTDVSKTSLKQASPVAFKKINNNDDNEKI
In words: IC50 of human NPY-Y1 blockers – cell-based, dose response (AID 1277). The experiment is classed as functional.

The nature of experiment [5]: cells. Particulars: A549.
Experiment [6] addresses T3, Serine/threonine-protein phosphatase (Candida dubliniensis (strain CD36 / CBS 7987 / NCPF 3949 / NRRLY-17841) (Yeast), UniProt B9W6M3).
T3 sequence (B9W6M3 whole entry): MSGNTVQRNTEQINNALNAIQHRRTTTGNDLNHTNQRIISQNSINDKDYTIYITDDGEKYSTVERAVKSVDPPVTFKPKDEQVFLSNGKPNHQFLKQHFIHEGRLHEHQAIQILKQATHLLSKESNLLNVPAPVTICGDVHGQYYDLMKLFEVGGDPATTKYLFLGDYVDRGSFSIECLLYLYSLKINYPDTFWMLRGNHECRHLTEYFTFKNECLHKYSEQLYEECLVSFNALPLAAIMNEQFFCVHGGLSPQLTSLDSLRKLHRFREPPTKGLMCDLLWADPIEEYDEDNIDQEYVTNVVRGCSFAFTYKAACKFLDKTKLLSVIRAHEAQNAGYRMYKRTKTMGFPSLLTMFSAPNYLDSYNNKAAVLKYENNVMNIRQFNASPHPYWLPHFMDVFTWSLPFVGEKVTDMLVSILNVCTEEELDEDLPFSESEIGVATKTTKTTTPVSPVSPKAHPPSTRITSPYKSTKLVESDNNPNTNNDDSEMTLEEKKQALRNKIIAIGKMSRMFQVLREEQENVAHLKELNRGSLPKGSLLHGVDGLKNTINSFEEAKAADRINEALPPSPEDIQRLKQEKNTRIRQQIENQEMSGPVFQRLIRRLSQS
In words: blockers of CaCl2-induced CDRE-lacZ signaling – S. cerevisiae, luminescence, secondary, dose response (AID 2388).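 Note: yeast reporter cells carrying a calcineurin-responsive lacZ construct stimulated with calcium chloride; luminescent beta-galactosidase reporter signal in whole cells rather than isolated phosphatase activity; potency for inhibition where a drop in reporter signal means calcineurin blockade.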 The experiment is classed as functional, cell-based.

Experiment [7] has as its target T4, DNA repair protein RAD52 homolog (Homo sapiens, UniProt P43351).
T4 sequence (P43351 whole entry): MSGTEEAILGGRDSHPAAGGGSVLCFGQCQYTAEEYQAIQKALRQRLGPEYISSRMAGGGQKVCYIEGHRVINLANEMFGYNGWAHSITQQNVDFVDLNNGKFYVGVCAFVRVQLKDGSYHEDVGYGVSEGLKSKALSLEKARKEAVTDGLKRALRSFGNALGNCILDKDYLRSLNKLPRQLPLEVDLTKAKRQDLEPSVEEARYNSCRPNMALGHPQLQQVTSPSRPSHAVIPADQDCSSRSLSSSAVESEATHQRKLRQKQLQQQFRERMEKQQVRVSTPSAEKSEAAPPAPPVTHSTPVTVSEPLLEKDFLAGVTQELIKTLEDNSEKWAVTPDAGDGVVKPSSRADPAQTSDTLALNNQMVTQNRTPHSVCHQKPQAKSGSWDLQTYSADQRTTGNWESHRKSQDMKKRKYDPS
Format: functional, biochemical.

Experiment [8] can be described thus: fluconazole-exposed Candida albicans growth modulators – fluorescence, retest, confirmation (AID 2467). The experiment is classed as functional, cell-based.
Experiment [9] can be described thus: cells. Particulars: HEK293.
Experiment [10] can be described thus: NIH3T3 cell viability loss – ATP luminescence, mouse fibroblasts, counter-screen, dose response (AID 2010).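 Note: cells exposed to compound for about 90 hours before reading.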 Format: functional, cell-based.
A short description of experiment [11]: Trypanosoma cruzi growth suppression in host cells – NIH3T3 host cells, beta-gal luminescence, confirmation (AID 2044).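 Note: intracellular parasites grown in NIH/3T3 mouse fibroblasts as host cells; luminescent beta-galactosidase reporter signal from transgenic T. cruzi replicating inside host cells; inhibitors lower the luminescence signal.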 Format: functional, cell-based.
Experiment [12] can be described thus: NIH-3T3 fibroblast cytotoxicity, dose response, cytotoxicity control, cell-based, fluorescence, Alamar Blue, secondary assay (AID 2327).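 Note: NIH-3T3 mouse fibroblasts cultured with fluconazole at 8 µg/mL.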 The experiment is classed as functional. For orientation: The colour change of resazurin is a common sign of viable cells or microbes.
Experiment [13] in a line: cells. The settings on record: HEK-CNG. The experiment is classed as functional, cell-based.
Experiment [14] is described as follows: luciferase reporter signal suppression in cells – H4 neuroglioma cells, luminescence, dose response (AID 1990). The experiment is classed as functional, cell-based.
For a further experiment, the target named is T5, Galanin receptor type 3 (Homo sapiens, UniProt O60755).
T5 sequence (O60755 whole entry): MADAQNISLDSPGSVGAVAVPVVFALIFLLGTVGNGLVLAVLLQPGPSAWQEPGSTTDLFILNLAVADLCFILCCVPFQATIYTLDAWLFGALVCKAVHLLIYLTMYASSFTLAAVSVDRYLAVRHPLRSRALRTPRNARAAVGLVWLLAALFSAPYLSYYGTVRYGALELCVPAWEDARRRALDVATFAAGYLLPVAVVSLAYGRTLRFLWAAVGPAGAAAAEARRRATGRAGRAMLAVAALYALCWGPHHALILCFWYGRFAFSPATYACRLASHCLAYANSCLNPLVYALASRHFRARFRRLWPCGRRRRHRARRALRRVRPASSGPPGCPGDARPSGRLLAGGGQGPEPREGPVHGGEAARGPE
In words: Fluorescence-based cell-based primary high throughput dose response assay to identify antagonists of the Galanin Receptor 3 (GalR3). Format: functional.

The nature of experiment [15]: Luminescence Cell-Based Dose Response HTS to Identify Inhibitors of 5'UTR Stem-Loop Driven Prion Protein mRNA Translation in H4 Neuroglioblastoma Cells. [Related pubchem assays: 1827 (Project Summary), 1813 (Primary HTS)]. Format: functional.
Experiment [16] deals with ATP-dependent molecular chaperone HSP82 (Candida albicans (strain WO-1) (Yeast), UniProt C4YTQ8). Put plainly: steroid-induced GRE reporter decrease in yeast – S. cerevisiae, luminescence, Hsp90 inhibitor project, dose response (AID 2400).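 Note: beta-galactosidase luminescence from glucocorticoid response element reporter as proxy for Hsp90 function; inhibitor potency where signal loss means Hsp90 inhibition.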 The experiment is classed as functional, cell-based.
Chain of ATP-dependent molecular chaperone HSP82 (C4YTQ8 whole entry): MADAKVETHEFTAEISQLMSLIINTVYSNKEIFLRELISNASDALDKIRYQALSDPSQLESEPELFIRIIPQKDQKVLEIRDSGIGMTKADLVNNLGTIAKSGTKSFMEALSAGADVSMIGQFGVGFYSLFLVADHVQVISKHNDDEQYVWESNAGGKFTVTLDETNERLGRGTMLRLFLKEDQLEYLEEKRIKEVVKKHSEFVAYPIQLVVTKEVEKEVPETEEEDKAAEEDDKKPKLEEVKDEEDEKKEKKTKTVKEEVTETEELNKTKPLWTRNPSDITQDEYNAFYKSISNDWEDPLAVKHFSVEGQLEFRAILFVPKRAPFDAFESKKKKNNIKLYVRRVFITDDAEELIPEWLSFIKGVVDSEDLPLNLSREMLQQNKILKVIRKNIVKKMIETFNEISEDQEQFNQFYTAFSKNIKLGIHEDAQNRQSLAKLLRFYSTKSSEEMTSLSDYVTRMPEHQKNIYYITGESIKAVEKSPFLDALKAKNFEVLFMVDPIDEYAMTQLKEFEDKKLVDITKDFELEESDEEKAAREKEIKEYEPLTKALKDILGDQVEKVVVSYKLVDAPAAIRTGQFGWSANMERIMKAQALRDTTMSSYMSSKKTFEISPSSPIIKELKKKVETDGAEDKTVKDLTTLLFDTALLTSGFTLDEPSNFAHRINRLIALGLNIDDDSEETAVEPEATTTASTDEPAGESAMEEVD
Experiment [17] can be described thus: alpha-synuclein stem-loop luciferase translation blockers – H4 neuroglioma cells, luminescence, confirmation (AID 1988). Format: functional, cell-based.

Consider `CC[n+]1c(/C=C2\SC(c3ccccc3C)=CN2C)sc2ccccc21`, for which the AC50 is 2.18 µM (active) in experiment [1], 2.44 µM (active) in the experiment “cells [5]”, 8.2 µM (active) in [7] and 2.77 µM (active) in the experiment “cells [9]”. Besides, the values for the IC50 (in [2]; in experiment [4]; at Galanin receptor type 3) were 29.6 µM (not active), 6.98 µM (active) and 0.404 µM (active), respectively. Moreover, the EC50 in “cells [3]” is 0.021 µM (active); in experiment [6], > 180 µM (inactive); in [8], 0.212 µM (active); in experiment [10], 7.48 µM (active); in [11] it was < 0.1 µM (active); in experiment [12], > 150 µM (inactive). The EC50 in “cells [13]” was > 29.9 µM (inactive); in experiment [14], 8.74 µM (active); in experiment [15], 8.01 µM (active); in [16] it was > 150 µM (inactive); in experiment [17], 0.619 µM (active).
